{"source": "patent US20260315447A1", "about": "“COMBINATION THERAPY WITH A MTOR INHIBITOR AND A MULTI-TYROSINE KINASE INHIBITOR FOR TREATING SOFT TISSUE SARCOMA” (ADDi Bioscience, Inc., priority 2023, published 2026)", "key": {"mTORCI": {"tested_on": "mTORCI", "conditions": "cited from earlier work"}, "mTORC2": {"tested_on": "mTORC2", "conditions": "cited from earlier work"}, "[1]": {"tested_on": "Human serum albumin (HSA)", "conditions": "cited from earlier work"}, "human plasma proteins": {"tested_on": "human plasma proteins", "conditions": "cited from earlier work"}, "[2]": {"test": "Phase I study of oral pazopanib and intravenous nab-sirolimus: safety (adverse events, dose-limiting toxicity, recommended dose)", "format": "in vivo, human", "conditions": "by mouth daily, in combination with nab-sirolimus 30 mg/m^2", "source_text": "This was a phase I study designed to determine the safety and feasibility of a combination of oral pazopanib hydrochloride and intravenous nab-sirolimus. To obtain preliminary information regarding efficacy, the study had limited enrollment to those patients with advanced/unresectable STS for whom single agent pazopanib was indicated as a therapy.\nThe primary endpoint of the study was the determination of a maximum-tolerated dose (MTD) and recommended Phase 2 dose of nab-sirolimus combined with pazopanib. Secondary endpoints included characterization of adverse events of the nab-sirolimus/pazopanib combination and descriptive characterization of clinical benefit of the nab-sirolimus/pazopanib combination (objective responses, progression-free survival duration, and clinical benefit rates at 3 and 6 months). Correlative endpoints were included to evaluate the correlation of clinical benefit with baseline mTOR pathway activation status, as assessed by immunohistochemistry for phosphorylated-S6 ribosomal protein, correlation of clinical benefit with baseline tumoral expression of Serum Protein Acidic and Rich in Cysteine (SPARC)/Osteonectin, as assessed by immunohistochemistry, and pharmacokinetics of nab-sirolimus in combination with pazopanib.\nIf no DLT occurred after two doses, escalation to the next dose level was permitted. […]"}, "soft-tissue sarcoma": {"tested_on": "soft-tissue sarcoma", "conditions": "single agent pazopanib, soft-tissue sarcoma patients; cited from earlier work"}}, "note": "“Also recorded” adds a separate entry of the source.", "data": [{"smiles": "COc1cccc2cc(-c3nc([C@H]4CC[C@H](C(=O)O)CC4)n4ncnc(N)c34)[nH]c12", "note": "[OSI-027]", "values": [{"measurement": "IC50", "setting": "mTORCI", "result": 22, "unit": "nM"}, {"measurement": "IC50", "setting": "mTORC2", "result": 65, "unit": "nM"}]}, {"smiles": "CO[C@H]1C[C@@H]2CC[C@@H](C)[C@@](O)(O2)C(=O)C(=O)N2CCCC[C@H]2C(=O)O[C@H]([C@H](C)C[C@@H]2CC[C@@H](O)[C@H](OC)C2)CC(=O)[C@H](C)/C=C(\\C)[C@@H](O)[C@@H](OC)C(=O)[C@H](C)C[C@H](C)/C=C/C=C/C=C/1C", "note": "[Rapamycin, rapamycin]", "values": [{"measurement": "binding to HSA", "setting": "[1]", "result": "bind HSA"}]}, {"smiles": "CC(=O)O[C@@]12CO[C@@H]1C[C@H](O)[C@@]1(C)C(=O)[C@H](O)C3=C(C)[C@@H](OC(=O)[C@H](O)[C@@H](NC(=O)OC(C)(C)C)c4ccccc4)C[C@@](O)([C@@H](OC(=O)c4ccccc4)[C@H]21)C3(C)C", "note": "[docetaxel]", "values": [{"measurement": "binding to human plasma proteins", "setting": "human plasma proteins", "result": "bind to human plasma proteins"}]}, {"smiles": "Cc1ccc(Nc2nccc(N(C)c3ccc4c(C)n(C)nc4c3)n2)cc1S(N)(=O)=O", "note": "[pazopanib]", "values": [{"measurement": "Recommended Phase 2 dose of pazopanib", "setting": "[2]", "result": 400, "unit": "mg"}, {"measurement": "overall survival compared to placebo control", "setting": "soft-tissue sarcoma", "result": "did not have a meaningful improvement in overall survival rate; also recorded: not found to provide a significant difference in overall survival"}, {"measurement": "response rate", "setting": "soft-tissue sarcoma", "result": "~6", "unit": "%"}]}, {"smiles": "CC(C)c1cccc(C(C)C)c1O", "note": "[propofol]", "values": [{"measurement": "binding to HSA", "setting": "[1]", "result": "bind HSA"}]}]}
